{
  "source": "patent US20260123631A1",
  "about": "“NATURAL PORPHIN SALT AND USE THEREOF AS PLANT GROWTH REGULATOR AND PLANT IMMUNITY INDUCER” (NANJING BOSTEC BIOLOGICAL ENGINEERING CO., LTD, priority 2022, published 2026)",
  "key": {"cotton": {"tested_on": "cotton", "experiment": "Cotton yield in the verticillium wilt experiment", "assay_type": "in vivo, cotton (Xinluzhong 66)", "description": "Method: A total of five treatments were set, including: the sample in three concentrations; the positive control; and the blank control. An agent was sprayed once at each of a seedling stage (May 28) and a bud stage (June 28) of cotton, where a concentration was adjusted each time. Concentration changes of the sodium iron chlorophyllin and controls (first to fifth treatments) were as follows:\nThe harvesting was conducted on Nov. 15, 2020. […] The growth of cotton was first counted. Then, the harvesting was conducted, and a yield increase rate was calculated."}, "[1]": {"experiment": "Stability of sample solutions in the dark/under light", "assay_type": "physicochemical", "conditions": "under light 30,000 lux, salts in water, acidic reference in 30% to 50% ethanol", "in_short": "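Salt in water, or acidic reference in 30–50% aqueous ethanol, at about 10 ppm; UV absorbance scanned 200–800 nm at 0, 1, 2, 3 h, stored at 25° C dark or under 30,000 lux light. Relative content = max-peak absorbance at each time divided by 0 h value (100%).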"}, "[2]": {"tested_on": "verticillium wilt in cotton", "experiment": "Spraying on cotton to control verticillium wilt", "assay_type": "in vivo, cotton (Xinluzhong 66)", "from_the_text": "Method: A total of five treatments were set, including: the sample in three concentrations; the positive control; and the blank control. An agent was sprayed once at each of a seedling stage (May 28) and a bud stage (June 28) of cotton, where a concentration was adjusted each time. Concentration changes of the sodium iron chlorophyllin and controls (first to fifth treatments) were as follows: [table] […] A three-point survey method was adopted for each treatment, and 100 plants were selected at each point. A control effect was surveyed."}, "chlorophyllase": {"target": "chlorophyllase", "experiment": "In vitro chlorophyllase-inhibiting activity test", "assay_type": "biochemical, mung bean", "conditions": "substrate chlorophyll 120 ppm, sample 0.3 ppm to 30.0 ppm", "description": "A chlorophyllase inhibition rate of a salt sample solution at each concentration was determined, and an IC50 value for a chlorophyllase inhibition activity of a salt sample was calculated."}, "tomato": {"tested_on": "tomato", "experiment": "Spraying on tomato to increase a yield", "assay_type": "in vivo, tomato (Jinfan 1615)", "conditions": "0.05 ppm sprayed twice; for Yield increase rate: versus control", "description": "During cultivation, flat planting, plastic mulching, seedling transplanting, and pressurized drip irrigation were adopted. On April 29, seedlings were transplanted at 2,600 seedlings/mu. An area of 20 mu was adopted for each of control and treatment groups. Each treatment region was sprayed with a sodium iron chlorophyllin solution at a concentration of 0.05 ppm twice in an early flowering stage (May 22, 2021) and a fruit setting stage (Jun. 5, 2021), respectively.\nThe harvesting was conducted on August 3. During the harvesting, 5 plants were continuously and randomly selected from each treatment for sampling statistics."}, "rice": {"tested_on": "rice", "experiment": "Spraying on flooded rice", "assay_type": "in vivo, rice (Nanjing 9108)", "conditions": "10.0 ppm solution, 1.2 L/mu (12.0 mg/mu), aerial application after 10 d waterlogging; moisture content 16.5%", "description": "Waterlogging: On Jul. 10, 2021, an area of 20 mu was flooded. The floodwater receded on July 20. During the 10 d of waterlogging, the plant was totally submerged for nearly 4 d and was mostly submerged for nearly 6 d. After the floodwater receded, rice plants were weak and had yellow and drooping leaves.\nMethod: A 10.0 ppm sodium iron chlorophyllin solution was sprayed on 10 mu of land through aerial application at an average amount of 1.2 L/mu (sodium iron chlorophyllin amount: 12.0 mg/mu). 10 mu of land was taken as a blank control (0 mg/mu)."}, "mung bean seedlings": {"tested_on": "mung bean seedlings", "experiment": "Inducing adventitious roots from hypocotyls of mung bean", "assay_type": "in vivo", "conditions": "day 7", "in_short": "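Cuttings taken 3 cm below the first true leaf node from 7–8 cm seedlings, roots removed, held in 0.010 ppm or 0.1 ppm salt samples in 400-fold diluted hydroponic nutrient solution in darkened bottles. Kept 7 d at 20–25° C with solution changed every 2 d; adventitious root number and total length per seedling averaged on day 7.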"}, "[3]": {"experiment": "Dilution and pH determination for sample solutions", "assay_type": "physicochemical", "description": "Method: 0.2500 g of a sample was accurately weighed and added to a 25 mL volumetric flask, dissolved with purified water, and diluted to a specified scale to prepare a 1.00% (10,000.0 ppm) initial solution. The initial solution was diluted with purified water in different ratios to prepare a series of solutions with a concentration of 1,000.0 ppm to 0.1 ppm. A pH value of each sample was determined three times."}, "[4]": {"conditions": "First treatment (0.167 / 0.500 ppm)"}, "[5]": {"conditions": "Second treatment (0.500 / 0.188 ppm)"}, "[6]": {"conditions": "Third treatment (1.000 / 0.833 ppm)"}, "[7]": {"conditions": "First treatment (0.167 ppm seedling stage, 0.500 ppm bud stage), first survey (June 28)"}, "[8]": {"conditions": "First treatment (0.167 ppm seedling stage, 0.500 ppm bud stage), second survey (August 10)"}, "[9]": {"conditions": "Second treatment (0.500 ppm seedling stage, 0.188 ppm bud stage), first survey (June 28)"}, "[10]": {"conditions": "Second treatment (0.500 ppm seedling stage, 0.188 ppm bud stage), second survey (August 10)"}, "[11]": {"conditions": "Third treatment (1.000 ppm seedling stage, 0.833 ppm bud stage), first survey (June 28)"}, "[12]": {"conditions": "Third treatment (1.000 ppm seedling stage, 0.833 ppm bud stage), second survey (August 10)"}},
  "data": [
    {"substance": "sodium iron chlorophyllin", "values": [
      {"measurement": "Actual seed cotton yield per mu", "setting": "cotton; [4]", "value": 380.8, "unit": "kg/mu"},
      {"measurement": "Average cotton boll weight", "setting": "cotton; [4]", "value": 5.2, "unit": "g"},
      {"measurement": "Effective cotton boll number in 0.01 mu", "setting": "cotton; [4]", "value": 812.0},
      {"measurement": "Yield increase rate", "setting": "cotton; [4]", "value": 7.94, "unit": "%"},
      {"measurement": "Actual seed cotton yield per mu", "setting": "cotton; [5]", "value": 374.9, "unit": "kg/mu"},
      {"measurement": "Average cotton boll weight", "setting": "cotton; [5]", "value": 5.3, "unit": "g"},
      {"measurement": "Effective cotton boll number in 0.01 mu", "setting": "cotton; [5]", "value": 786.1},
      {"measurement": "Actual seed cotton yield per mu", "setting": "cotton; [6]", "value": 386.9, "unit": "kg/mu"},
      {"measurement": "Average cotton boll weight", "setting": "cotton; [6]", "value": 5.3, "unit": "g"},
      {"measurement": "Effective cotton boll number in 0.01 mu", "setting": "cotton; [6]", "value": 812.0},
      {"measurement": "Yield increase rate", "setting": "cotton; [6]", "value": 9.66, "unit": "%"},
      {"measurement": "Relative content", "setting": "[1]; 1 h", "value": 61.61, "unit": "%"},
      {"measurement": "Relative content", "setting": "[1]; 2 h", "value": 54.63, "unit": "%"},
      {"measurement": "Relative content", "setting": "[1]; 3 h", "value": 53.29, "unit": "%"},
      {"measurement": "Average diseased plant rate", "setting": "[2]; [7]", "value": 2.2, "unit": "%"},
      {"measurement": "Control effect", "setting": "[2]; [7]", "value": 35.29, "unit": "%"},
      {"measurement": "Average diseased plant rate", "setting": "[2]; [8]", "value": 5.6, "unit": "%"},
      {"measurement": "Control effect", "setting": "[2]; [8]", "value": 35.63, "unit": "%"},
      {"measurement": "Average diseased plant rate", "setting": "[2]; [9]", "value": 2.3, "unit": "%"},
      {"measurement": "Control effect", "setting": "[2]; [9]", "value": 32.35, "unit": "%"},
      {"measurement": "Average diseased plant rate", "setting": "[2]; [10]", "value": 4.8, "unit": "%"},
      {"measurement": "Control effect", "setting": "[2]; [10]", "value": 44.83, "unit": "%"},
      {"measurement": "Average diseased plant rate", "setting": "[2]; [11]", "value": 1.8, "unit": "%"},
      {"measurement": "Control effect", "setting": "[2]; [11]", "value": 47.06, "unit": "%"},
      {"measurement": "Average diseased plant rate", "setting": "[2]; [12]", "value": 4.1, "unit": "%"},
      {"measurement": "Control effect", "setting": "[2]; [12]", "value": 49.42, "unit": "%"},
      {"measurement": "IC50 for chlorophyllase inhibition activity", "setting": "chlorophyllase", "value": 5.41, "unit": "ppm"},
      {"measurement": "Average single-fruit weight", "setting": "tomato", "value": 51.3, "unit": "g"},
      {"measurement": "Ear number/plant", "setting": "tomato", "value": 6.9},
      {"measurement": "Green fruit number/plant", "setting": "tomato", "value": 13.8, "unit": "fruit"},
      {"measurement": "Red fruit number/plant", "setting": "tomato", "value": 46.4, "unit": "fruit"},
      {"measurement": "Yield per mu", "setting": "tomato", "value": 6188.8, "unit": "kg/mu"},
      {"measurement": "increase of red-to-green fruit ratio compared with the control", "setting": "tomato", "value": 5.91, "unit": "%"},
      {"measurement": "red-to-green fruit ratio", "setting": "tomato", "value": 3.36},
      {"measurement": "Yield increase rate", "setting": "tomato", "value": 27.15, "unit": "%"},
      {"measurement": "Yield increase rate", "setting": "tomato; listed as sodium iron chlorophyllin", "value": "more than 27%"},
      {"measurement": "yield of the treatment field", "setting": "rice", "value": 720, "unit": "kg/mu"},
      {"measurement": "Adventitious root number", "setting": "mung bean seedlings; 0.01 ppm", "value": 14.51, "unit": "root/seedling"},
      {"measurement": "Total adventitious root length", "setting": "mung bean seedlings; 0.01 ppm", "value": 20.06, "unit": "cm/seedling"},
      {"measurement": "Adventitious root number", "setting": "mung bean seedlings; 0.1 ppm", "value": 13.67, "unit": "root/seedling"},
      {"measurement": "Total adventitious root length", "setting": "mung bean seedlings; 0.1 ppm", "value": 19.40, "unit": "cm/seedling"},
      {"measurement": "pH", "setting": "[3]; 0.1 ppm in purified water", "value": "(6.68)"},
      {"measurement": "pH", "setting": "[3]; 1.0 ppm in purified water", "value": "(6.95)"},
      {"measurement": "pH", "setting": "[3]; 10.0 ppm in purified water", "value": "(7.14)"},
      {"measurement": "pH", "setting": "[3]; 20.0 ppm in purified water", "value": "(7.52)"},
      {"measurement": "pH", "setting": "[3]; 30.0 ppm in purified water", "value": "(7.63)"},
      {"measurement": "pH", "setting": "[3]; 100.0 ppm in purified water", "value": "(8.18)"},
      {"measurement": "pH", "setting": "[3]; 1000.0 ppm in purified water", "value": "(10.05)"},
      {"measurement": "pH", "setting": "[3]; 10000.0 ppm in purified water", "value": "(10.87)"}
    ]}
  ]
}
